Data as given in patent US10647706B2, “Chemokine CXCR1 and CXCR2 receptor antagonist compounds, and use thereof in the treatment of chemokine-mediated pathologies” (GALDERMA RESEARCH & DEVELOPMENT, priority 2014, dated 2020).
Like-named read-outs stand apart in the source and are kept apart here.

Legend:
Type in all cases: cell-based
[1] = target: CXCR1 receptor (Homo sapiens (Human), UniProt P25024); assay: β-arrestin recruitment test, U2OS hCXCR1 β-arrestin cells stimulated with CXCL8; conditions: CXCL8 10 nM
Method: (§1) The in vitro affinity of the compounds of the present invention for the CXCR1 and CXCR2 receptors is determined on a functional test of β-arrestin recruitment type after activation of the receptor.
(§2) To evaluate the direct interaction of the CXCR2 or CXCR1 receptor with β-arrestin 2, a test of β-arrestin 2 recruitment for CXCR2 or CXCR1 based on complementation of the β-galactosidase enzyme (Olson K. R., Eglen R. M., Beta-galactosidase complementation: a cell-based luminescent assay platform for drug discovery. Assay Drug Dev. Technol. 2007 February; 5(1); 137-44), as established by DiscoveRx Corporation was used. Stimulation of these two cell lines with CXCL8 (10 nM) induces the recruitment of β-arrestin 2, as indicated by a significant increase in the induction factor. All the CXCR2 antagonists are tested in a dose-dependent manner and the concentration corresponding to 50% inhibition of the response is determined (IC50=concentration of half-inhibition).
(§3) β-Arrestin Recruitment Test: “PathHunter HEK293-CXCR2” or “U20S hCXCR1 β-arrestin” cells (DiscoveRx Corporation) were seeded overnight at 10 000 cells/well (384-well format) in 20 μl of Opti MEM I medium. Preincubation with the antagonist or the vehicle for 30 minutes at 37° C. and 5% CO2 was followed by 60 minutes of stimulation with CXCL8 at 37° C. and 5% CO2. The cells were then placed at room temperature for 30 minutes. The PathHunter detection reagent (DiscoveRx Corporation) was added. After incubation for 60 minutes at room temperature, the β-galactosidase induced by the luminescence during the β-arrestin-CXCR2 interaction was measured for 0.3 s in an Envision 2102 Multilabel Reader (PerkinElmer Life and Analytical Sciences). The data are analysed via a non-linear curve procedure using the XLFit4 (IDBS) exploitation software, and the IC50 values are determined.

[2] = target: CXCR2 receptor (Homo sapiens (Human), UniProt P25025); assay: β-arrestin recruitment test, PathHunter HEK293-CXCR2 cells stimulated with CXCL8; conditions: CXCL8 10 nM
Method: as §1, §2, §3

[3] = test system: human neutrophils; assay: Neutrophil migration (chemotaxis assay, Transwell, IL-8); conditions: 10 nM IL-8, 1 hour incubation
Method: Purification and culturing of human neutrophils Peripheral blood preparations (18-24 hours) are collected in duly registered clinics or clinical laboratories from healthy volunteers who consented to the re-use of their blood for scientific research (Supplier: Biopredic International). The neutrophils are separated from the whole blood via a positive selection (Whole Blood CD15 MicroBeads: MiltenyiBiotech, Reference: 130-091-058). The cells are resuspended at a rate of 4×10^6 cells per mL in RPMI 1640 culture medium (Invitrogen) supplemented with filtered and heat-inactivated 5% foetal calf serum (FCS) (Invitrogen).
The experiments were performed in “HTS Transwell 96 Well Permeable Supports 3-μm pore size” filter plates (Corning, Reference: 3386). The response doses of CXCRS antagonists are applied in the lower compartments of the plates in the presence of 10 nM of IL-8 (1-72 aa, R&D Systems, Cat. No. IL-208). The neutrophils are then seeded in the upper compartment (2×10^5 cells/well). After 1 hour of incubation at 37° C. and 5% CO2, the number of viable cells that have crossed the membrane and are in the lower compartment is determined via a colorimetric method (CellTiter 96® AQueous One Solution Cell Proliferation Assay—PROMEGA Cat # G3581). Each treatment condition is evaluated in duplicate. The IC50 values are calculated with the XLFit4 software.

[4] = Homo sapiens, Neutrophil, class symbols, read-out: Migration of human neutrophils IC50
[5] = Homo sapiens, Neutrophil, read-out: Migration of h neutrophils IC50

Sequence of CXCR1 receptor (P25024 whole entry): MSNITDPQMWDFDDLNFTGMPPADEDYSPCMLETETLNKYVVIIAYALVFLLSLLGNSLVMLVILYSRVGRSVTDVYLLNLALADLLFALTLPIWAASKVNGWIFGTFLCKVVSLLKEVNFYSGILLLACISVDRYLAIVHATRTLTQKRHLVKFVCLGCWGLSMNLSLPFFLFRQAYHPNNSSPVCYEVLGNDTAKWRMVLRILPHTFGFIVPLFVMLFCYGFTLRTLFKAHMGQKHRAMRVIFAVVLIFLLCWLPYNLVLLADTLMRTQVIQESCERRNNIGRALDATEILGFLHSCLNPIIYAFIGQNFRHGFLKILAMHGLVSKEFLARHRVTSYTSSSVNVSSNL
Sequence of CXCR2 receptor (P25025 whole entry): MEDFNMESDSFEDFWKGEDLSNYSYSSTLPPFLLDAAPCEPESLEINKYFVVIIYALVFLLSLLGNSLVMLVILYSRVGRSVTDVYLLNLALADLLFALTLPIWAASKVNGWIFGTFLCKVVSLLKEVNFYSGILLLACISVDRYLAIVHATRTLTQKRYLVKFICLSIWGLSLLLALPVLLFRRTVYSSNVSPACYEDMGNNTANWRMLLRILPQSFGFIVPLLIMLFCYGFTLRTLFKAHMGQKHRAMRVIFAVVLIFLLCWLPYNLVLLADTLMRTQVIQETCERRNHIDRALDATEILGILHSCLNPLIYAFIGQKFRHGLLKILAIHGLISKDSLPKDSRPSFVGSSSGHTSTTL

For `CN=S(C)(=O)c1c(Cl)ccc(NC(=O)Nc2cccc(F)c2Cl)c1O` (stereo not shown) [Example 7, 1-(2-Chloro-3-fluorophenyl)-3-{4-chloro-2-hydroxy-3-methane[(N-methyl)sulfoximino]phenyl}urea], the IC50 ([1]; class symbols) was ≥ 200 nM and the IC50 ([2]; class symbols) was ≥ 20 nM.

In the case of `CC[C@@H](Nc1c(Nc2cccc(S(C)(=O)=NC)c2O)c(=O)c1=O)c1ccc(C)o1` (single isomer, unassigned; (+)) [Example 16], the IC50 [1] is reported as 36 nM, the IC50 [2] is reported as 18 nM and the IC50 ([2]; class symbols) is reported as < 20 nM. For the same compound, the IC50 [3, 4] was ≥ 300 nM and the IC50 [3, 5] was 356 nM.

In the case of `CC[C@@H](Nc1c(Nc2ccc(Cl)c(S(C)(=O)=NC)c2O)c(=O)c1=O)c1ccccn1` (single isomer, unassigned; (-)) [Example 12], the IC50 [1] is reported as 28 nM, the IC50 ([1]; class symbols) is reported as < 200 nM and the IC50 [2] is reported as 16 nM. The IC50 ([2]; class symbols) was < 20 nM, the IC50 [3, 4] was < 300 nM and the IC50 [3, 5] was 82 nM.

`CC[C@@H](Nc1c(Nc2ccc(Cl)c(S(C)(=O)=NC)c2O)c(=O)c1=O)c1ccccn1` (single isomer, unassigned; (+)) [Example 13] was tested, and the IC50 ([1]; class symbols) was ≥ 200 nM and the IC50 ([2]; class symbols) was ≥ 20 nM.

With `CCC(CC)Nc1c(Nc2cccc(S(C)(=O)=NC)c2O)c(=O)c1=O` (single isomer, unassigned; (-)) [Example 18] the IC50 ([1]; class symbols) was ≥ 200 nM, the IC50 ([2]; class symbols) was ≥ 20 nM and the IC50 [3, 4] was ≥ 300 nM.

`CC[C@@H](Nc1c(Nc2ccc(Cl)c(S(C)(=O)=Nc3ccncc3)c2O)c(=O)c1=O)c1ccc(C)o1` (stereo partly drawn) [Example 3, 3-{4-Chloro-2-hydroxy-3-methane[(N-pyridin-4-yl)sulfoximino]phenylamino}-4-[(R)-1-(5-methylfuran-2-yl)propylamino]cyclobut-3-ene-1,2-dione] was tested, and the IC50 ([1]; class symbols) was ≥ 200 nM and the IC50 ([2]; class symbols) was ≥ 20 nM.

In the case of `CC[C@@H](Nc1c(Nc2cccc(S(C)(=O)=NC)c2O)c(=O)c1=O)c1ccccn1` (single isomer, unassigned; (-)) [Example 15], the IC50 ([1]; class symbols) is reported as ≥ 200 nM.

For `CC[C@@H](Nc1c(Nc2ccc(Cl)c(S(C)(=O)=NC)c2O)c(=O)c1=O)c1ccc(C)o1` (single isomer, unassigned; (+)) [Example 20], the IC50 ([1]; class symbols) was < 200 nM, the IC50 ([2]; class symbols) was < 20 nM and the IC50 [3, 4] was < 300 nM.

For `CC[C@@H](Nc1c(Nc2cccc(S(C)(=O)=NC)c2O)c(=O)c1=O)c1ccc(C)o1` (single isomer, unassigned; (+)) [Example 17], the IC50 ([1]; class symbols) was ≥ 200 nM.

`CC[C@@H](Nc1c(Nc2cccc(S(C)(=O)=NC)c2O)c(=O)c1=O)c1ccc(C)o1` (stereo partly drawn) [Example 8, 3-{2-Hydroxy-3-methane[(N-methyl)sulfoximino]phenylamino}-4-[(R)-1-(5-methylfuran-2-yl)propylamino]cyclobut-3-ene-1,2-dione] was tested, and the IC50 ([1]; class symbols) was < 200 nM, the IC50 ([2]; class symbols) was ≥ 20 nM and the IC50 [3, 4] was ≥ 300 nM.

`CC[C@@H](Nc1c(Nc2ccc(Cl)c(S(C)(=O)=NC)c2O)c(=O)c1=O)c1ccc(C)o1` (stereo partly drawn) [Example 2, 3-{4-Chloro-2-hydroxy-3-methane[(N-methyl)sulfoximino]phenylamino}-4-[(R)-1-(5-methylfuran-2-yl)propylamino]cyclobut-3-ene-1,2-dione] was tested, and the IC50 ([3]; class symbols, read-out: Migration of human neutrophils IC50) was < 300 nM.

For `CC[C@@H](Nc1c(Nc2cccc(S(C)(=O)=NC)c2O)c(=O)c1=O)c1ccccn1` (single isomer, unassigned; (-)) [Example 14], the IC50 ([1]; class symbols) was < 200 nM, the IC50 ([2]; class symbols) was ≥ 20 nM and the IC50 [3, 4] was ≥ 300 nM.

With `CCC(CC)Nc1c(Nc2ccc(Cl)c(S(C)(=O)=NCCN(C)C)c2O)c(=O)c1=O` (stereo not shown) [Example 10, 3-[4-Chloro-3-[N-(2-dimethylaminoethyl)-S-methylsulfonimidoyl]-2-hydroxyanilino]-4-(1-ethylpropylamino)cyclobut-3-ene-1,2-dione] the IC50 ([1]; class symbols) was ≥ 200 nM and the IC50 ([2]; class symbols) was ≥ 20 nM.

For `CCC(CC)Nc1c(Nc2ccc(Cl)c(S(C)(=O)=Nc3ccncc3)c2O)c(=O)c1=O` (stereo not shown) [Example 4, 3-{4-Chloro-2-hydroxy-3-methane[(N-pyridin-4-yl)sulfoximino]phenylamino}-4-(1-ethylpropylamino)cyclobut-3-ene-1,2-dione], the IC50 ([1]; class symbols) was ≥ 200 nM and the IC50 ([2]; class symbols) was ≥ 20 nM.

For `CS(=N)(=O)c1c(Cl)ccc(NC(=O)Nc2cccc(F)c2Cl)c1O` (stereo not shown) [Example 6, 1-(2-Chloro-3-fluorophenyl)-3-(4-chloro-2-hydroxy-3-methanesulfoximinephenyl)-urea], the IC50 ([1]; class symbols) was ≥ 200 nM and the IC50 ([2]; class symbols) was ≥ 20 nM.

For `CC[C@@H](Nc1c(Nc2ccc(Cl)c(S(C)(=N)=O)c2O)c(=O)c1=O)c1ccc(C)o1` (stereo partly drawn) [Example 1, 3-(4-Chloro-2-hydroxy-3-methanesulfoximinophenylamino)-4-[(R)-1-(5-methylfuran-2-yl)propylamino]cyclobut-3-ene-1,2-dione], the IC50 ([1]; class symbols) was < 200 nM, the IC50 ([2]; class symbols) was < 20 nM and the IC50 [3, 4] was < 300 nM.

For `CN=S(C)(=O)c1c(Cl)ccc(Nc2c(N[C@@H](c3ccc(C)o3)[C@H]3CCCS3)c(=O)c2=O)c1O` (stereo partly drawn) [Example 5, 3-{4-Chloro-2-hydroxy-3-methane[(N-methyl)sulfoximino]phenylamino}-4-{[(S)-(5-methylfuran-2-yl)-(R)-tetrahydrothiophen-2-ylmethyl]amino}cyclobut-3-ene-1,2-dione], the IC50 ([1]; class symbols) was < 200 nM, the IC50 ([2]; class symbols) was ≥ 20 nM and the IC50 [3, 4] was < 300 nM.

For `CC[C@@H](Nc1c(Nc2ccc(Cl)c(S(C)(=O)=NCCOC)c2O)c(=O)c1=O)c1ccc(C)o1` (stereo partly drawn) [Example 11, 3-[4-Chloro-2-hydroxy-3-[N-(2-methoxyethyl)-S-methylsulfonimidoyl]anilino]-4-[[(1R)-1-(5-methyl-2-furyl)propyl]amino]cyclobut-3-ene-1,2-dione], the IC50 ([1]; class symbols) was ≥ 200 nM and the IC50 ([2]; class symbols) was ≥ 20 nM.
